Source: patent US11951131B2, “Anti-SLAMF7 chimeric antigen receptors” (The United States of America, as represented by the …, priority 2018, dated 2024)
Entries after “also recorded” stand apart in the source; their conditions may differ.

Legend:
[1] = Signs of CAR T-cell-mediated toxicity in mice; format: in vivo; conditions: mice after CAR T-cell infusion
Experimental: First, MM.1S human SLAMF7^+ multiple myeloma cell line tumors were established in immunodeficient mice. In this model, the MM.1S cells formed a solid cutaneous mass. Measurable tumors were allowed to develop over 7 days, and then the mice were treated with a single intravenous infusion of MSGV1-IC9-Luc90-CD828Z-transduced human T cells. NSG mice (NOD.Cg-Prkdc^scid Il2rg^tm1Wjl/SzJ) from The Jackson Laboratory, Bar Harbor, Me., were used. Mice received intradermal injections of 4×10^6 MM.1S cells. The cells were suspended in a 1:1 mixture of MATRIGEL™ gelatinous protein mixture (BD Biosciences) and PBS (Phosphate-buffered saline) for injection. Tumors were allowed to grow for 7 days, and then each mouse received a single intravenous infusion of human T cells that were transduced with one of 3 CARs: IC9-Luc90-CD828Z (suicide gene+anti-SLAMF7 CAR), Luc90-CD828Z (anti-SLAMF7 CAR alone), or a negative-control anti-CD19 CAR Hu19-CD828Z. A 4th group was left untreated. All groups included 5 mice. After CAR T-cell infusion, the tumors were measured with calipers every 3 days. The longest length and the length perpendicular to the longest length and the tumor thickness were multiplied together to obtain the tumor volume in mm^3. When the longest length reached 15 mm, mice were sacrificed. Animal studies were approved by the National Cancer Institute Animal Care and Use Committee. […]

T cells only = assay: IFN-gamma ELISA, T cells only (no target cells); format: cell-based, human
Experimental: (§1) One-hundred thousand SLAMF7^+ or SLAMF7-negative target cells were combined with 100,000 CAR-transduced T cells in duplicate wells of a 96 well round bottom plate in 200 µL of AIM V™ medium (Invitrogen) plus 5% human serum. The plates were incubated at 37° C. for 18-20 hours. Following the incubation, ELISAs (enzyme-linked immunosorbent assays) for IFNγ were performed by using standard methods.
The T cells columns indicate whether T cells were transduced with Luc90-CD828Z, Luc63-CD828Z, or were untransduced. The % CAR^+ in Table B-1 was determined by staining the T cells with Protein L. Except for the % CAR^+ column, all values are pg/mL of IFN-gamma. T cells that were either untransduced or transduced with one of the indicated CARs were cultured with target cells overnight and a standard IFN-gamma ELISA was performed on the culture supernatant.
(§2) All values are pg/mL of IFN-gamma. T cells that were either untransduced or transduced with one of the indicated CARs were cultured with target cells overnight, and a standard IFN-gamma ELISA was performed on the culture supernatant.
The values in the cells are pg/mL of IFN-gamma. T cells that were either untransduced or transduced with one of the indicated CARs were cultured with target cells overnight, and a standard IFN-gamma ELISA was performed on the culture supernatant. The concentrations of 0, 50, or 200 ng/mL at the top of each column indicates the concentration of soluble SLAMF7 added to all T cell plus target cell overnight cultures in that column. The soluble SLAMF7 was added at the beginning of the overnight culture.

MM.1S = assay: IFN-gamma ELISA, CAR T cells with MM.1S target cells; format: cell-based, human
Excerpt: MM.1S is a SLAMF7^+ multiple myeloma cell line that was obtained from American Type Culture Collection (ATCC). A549 is a BCMA-negative lung cancer cell line (ATCC). TC71 is a BCMA-negative sarcoma cell line. CCRF-CEM, 293T, and A549 are SLAMF7-negative cell lines (ATCC). COL0207, HepG2, U251, Panc10.05, and TC71 are […] that were kind gifts from Dr. Steven Rosenberg, National Cancer Institute. SLAMF7-K562 are K562 cells (ATCC) which were transduced with the gene for full-length SLAMF7. SLAMF7-RPMI are RPMI8226 cells (ATCC) which were transduced with the gene for full-length SLAMF7. NGFR-K562 are K562 cells which were transduced with the gene for low-affinity nerve growth factor (Kochenderfer et al., J. Immunother., 32(7): 689-702 (2009)). All of the human samples mentioned were obtained from patients enrolled in IRB-approved clinical trials at the National Cancer Institute.
as §1, §2

SLAMF7^+ MM.1S cells = assay: Cytotoxicity assay (4 hours, relative to CCRF-CEM cells); format: cell-based, human; conditions: MM.1S relative to control CCRF-CEM cells (FIG. 8A)
Experimental: Cytotoxicity assays were conducted as previously described (see Kochenderfer et al., J. Immunother., 32(7): 689-702 (2009)). Cytotoxicity was measured by comparing survival of SLAMF7^+ target cells relative to the survival of negative-control CCRF-CEM cells. Both of these cell types were combined in the same tubes with CAR-transduced T cells. CCRF-CEM negative control cells were labeled with the fluorescent dye 5-(and -6)-(((4-chloromethyl)benzoyl)amino) tetramethylrhodamine (CMTMR) (Invitrogen), and SLAMF7^+ target cells were labeled with CFSE. Cocultures were set up in sterile 5 mL test tubes (BD Biosciences) in duplicate at multiple T cell to target cell ratios. The target cells contained in the tubes were 50,000 SLAMF7^+ target cells along with 50,000 CCRF-CEM negative-control cells. The cultures were incubated for 4 hours at 37° C. Immediately after the incubation, 7AAD (7-amino-actinomycin D) (BD Biosciences) was added, and flow cytometry acquisition was performed. For each T cell plus target-cell culture, the percent survival of SLAMF7^+ target cells was determined by dividing the percent live SLAMF7^+ cells by the percent live CCRF-CEM negative control cells. The corrected percent survival of SLAMF7^+ target cells was calculated by dividing the percent survival of SLAMF7^+ target cells in each T cell plus target cell culture by the ratio of the percent live SLAMF7^+ target cells to percent live CCRF-CEM negative-control cells in tubes containing only SLAMF7^+ target cells and CCRF-CEM cells without effector T cells. This correction was necessary to account for variation in the starting cell numbers and for spontaneous target cell death. Cytotoxicity was calculated as follows: the percent cytotoxicity of […] target cells=100−corrected percent survival of SLAMF7^+ target cells.

## Luc90-CD828Z: anti-SLAMF7 CAR (SEQ ID NO: 27): murine Luc90 scFv, human CD8a hinge and TM, CD28 and CD3ζ domains; tested as transduced T cells
[1]
  signs of CAR T-cell-mediated toxicity: did not exhibit ruffled fur or decreased activity
T cells only; Table B-2
  IFN-gamma, T cells only: 29 pg/mL
T cells only; Table C
  IFN-gamma, T cells only: 33 pg/mL
T cells only; Table D, no target cells, soluble SLAMF7 0 ng/ml
  IFN-gamma, T cells 0 ng/ml: 172 pg/mL
T cells only; Table D, no target cells, soluble SLAMF7 50 ng/ml
  IFN-gamma, T cells 50 ng/ml: 160 pg/mL
T cells only; Table D, no target cells, soluble SLAMF7 200 ng/ml
  IFN-gamma, T cells 200 ng/ml: 41 pg/mL
MM.1S; Table C
  IFN-gamma, target cells MM.1S: 4269 pg/mL
SLAMF7^+ MM.1S cells
  killing of SLAMF7^+ target cells: killed SLAMF7^+ target cells

## IC9-Luc90-CD828Z: CAR plus suicide gene construct (SEQ ID NO: 31): IC9 suicide gene 5′ to the CAR, T2A, Luc90-CD828Z
[1]
  signs of CAR T-cell-mediated toxicity: did not exhibit any signs of CAR T-cell-mediated toxicity; also recorded: did not exhibit ruffled fur or decreased activity; also recorded: no toxicity
T cells only; Table E
  IFN-gamma, T-cells Alone: 38 pg/mL
MM.1S; Table E
  IFN-gamma, MM.1S: 1849 pg/mL
SLAMF7^+ MM.1S cells
  killing of SLAMF7^+ target cells: killed SLAMF7^+ target cells; also recorded: specifically killed the SLAMF7^+ MM.1S cells
